Results from patent US7319098B2, “1,3-dioxoisoindole derivatives having selective antagonism of T-type calcium channel” (Korea Institute of Science and Technology, priority 2006, dated 2008).

biological target: T1, α1G T-type Ca2+ channels (Homo sapiens, UniProt O43497); experiment: Screening of activity against T-type calcium channel with FDSS6000 (fluorescence, KCl-induced [Ca2+]i increase); assay type: cell-based; conditions: 10 μM; HEK293 cells expressing α1G and Kir2.1; NA: Not Active; read-out: Inhibitory effect (%) of T-type calcium channel, Inhibition (%)
T1 construct: expressed in transfected cells; host or cells: HEK293 cells stably expressing α1G and Kir2.1
Protocol: Meanwhile, the antagonistic activity of the novel compound of Formula (1) herein against T-type calcium channel was tested as described below. The synthesized compounds were tested for the activity against T-type calcium channel with FDSS6000. Compounds with good activity were selected and IC50 values were exactly obtained by using electrophysiological whole cell patch clamp method. HEK293 cells which stably express both α1G and Kir2.1 subunits were grown in Dulbecco's modified Eagle's medium supplemented with 10% (v/v) fetal bovine serum, penicillin (100 U/mL), streptomycin (100 μg/mL), geneticin (500 μg/mL), and +puromycin (I μg/mL) at 37° C. in a humid atmosphere of 5% CO2 and 95% air. Cells were seeded into 96-well black wall clear bottom plates at a density of 4×10^4 cells/well and were used the next day for high-throughput screening (HTS) FDSS6000 assay. For FDSS6000 assay, cells were incubated for 60 min at room temperature with 5 μM fluo3/AM and 0.001% Pluronic F-127 in a HEPES-buffered solution composed of (in mM): 115 NaCl, 5.4 KCl, 0.8 MgCl2, 1.8 CaCl2, 20 HEPES, 13.8 glucose (pH 7.4). During the fluorescence-based FDSS6000 assay, cells in HEPES-buffered solution containing 10 mM CaCl2 were pretreated with a certain concentration of test compounds and then treated with high concentration of KCl ([…]). α1G T-type Ca^2+ channels were activated by using high concentration of KCl (70 mM) and the increase in [Ca^2+]i by KCl-induced depolarization was detected. During the whole procedure, cells were washed using the BIO-TEK 96-well washer. All data were collected and analyzed using FDSS6000 and related software (Hamamatsu, Japan). The IC50 results of examining the inhibitory effects of the compounds herein selected with FDSS6000 on the calcium influx through the T-type calcium channel are provided in TABLEs 1 and 2.

T1 sequence (O43497 whole entry): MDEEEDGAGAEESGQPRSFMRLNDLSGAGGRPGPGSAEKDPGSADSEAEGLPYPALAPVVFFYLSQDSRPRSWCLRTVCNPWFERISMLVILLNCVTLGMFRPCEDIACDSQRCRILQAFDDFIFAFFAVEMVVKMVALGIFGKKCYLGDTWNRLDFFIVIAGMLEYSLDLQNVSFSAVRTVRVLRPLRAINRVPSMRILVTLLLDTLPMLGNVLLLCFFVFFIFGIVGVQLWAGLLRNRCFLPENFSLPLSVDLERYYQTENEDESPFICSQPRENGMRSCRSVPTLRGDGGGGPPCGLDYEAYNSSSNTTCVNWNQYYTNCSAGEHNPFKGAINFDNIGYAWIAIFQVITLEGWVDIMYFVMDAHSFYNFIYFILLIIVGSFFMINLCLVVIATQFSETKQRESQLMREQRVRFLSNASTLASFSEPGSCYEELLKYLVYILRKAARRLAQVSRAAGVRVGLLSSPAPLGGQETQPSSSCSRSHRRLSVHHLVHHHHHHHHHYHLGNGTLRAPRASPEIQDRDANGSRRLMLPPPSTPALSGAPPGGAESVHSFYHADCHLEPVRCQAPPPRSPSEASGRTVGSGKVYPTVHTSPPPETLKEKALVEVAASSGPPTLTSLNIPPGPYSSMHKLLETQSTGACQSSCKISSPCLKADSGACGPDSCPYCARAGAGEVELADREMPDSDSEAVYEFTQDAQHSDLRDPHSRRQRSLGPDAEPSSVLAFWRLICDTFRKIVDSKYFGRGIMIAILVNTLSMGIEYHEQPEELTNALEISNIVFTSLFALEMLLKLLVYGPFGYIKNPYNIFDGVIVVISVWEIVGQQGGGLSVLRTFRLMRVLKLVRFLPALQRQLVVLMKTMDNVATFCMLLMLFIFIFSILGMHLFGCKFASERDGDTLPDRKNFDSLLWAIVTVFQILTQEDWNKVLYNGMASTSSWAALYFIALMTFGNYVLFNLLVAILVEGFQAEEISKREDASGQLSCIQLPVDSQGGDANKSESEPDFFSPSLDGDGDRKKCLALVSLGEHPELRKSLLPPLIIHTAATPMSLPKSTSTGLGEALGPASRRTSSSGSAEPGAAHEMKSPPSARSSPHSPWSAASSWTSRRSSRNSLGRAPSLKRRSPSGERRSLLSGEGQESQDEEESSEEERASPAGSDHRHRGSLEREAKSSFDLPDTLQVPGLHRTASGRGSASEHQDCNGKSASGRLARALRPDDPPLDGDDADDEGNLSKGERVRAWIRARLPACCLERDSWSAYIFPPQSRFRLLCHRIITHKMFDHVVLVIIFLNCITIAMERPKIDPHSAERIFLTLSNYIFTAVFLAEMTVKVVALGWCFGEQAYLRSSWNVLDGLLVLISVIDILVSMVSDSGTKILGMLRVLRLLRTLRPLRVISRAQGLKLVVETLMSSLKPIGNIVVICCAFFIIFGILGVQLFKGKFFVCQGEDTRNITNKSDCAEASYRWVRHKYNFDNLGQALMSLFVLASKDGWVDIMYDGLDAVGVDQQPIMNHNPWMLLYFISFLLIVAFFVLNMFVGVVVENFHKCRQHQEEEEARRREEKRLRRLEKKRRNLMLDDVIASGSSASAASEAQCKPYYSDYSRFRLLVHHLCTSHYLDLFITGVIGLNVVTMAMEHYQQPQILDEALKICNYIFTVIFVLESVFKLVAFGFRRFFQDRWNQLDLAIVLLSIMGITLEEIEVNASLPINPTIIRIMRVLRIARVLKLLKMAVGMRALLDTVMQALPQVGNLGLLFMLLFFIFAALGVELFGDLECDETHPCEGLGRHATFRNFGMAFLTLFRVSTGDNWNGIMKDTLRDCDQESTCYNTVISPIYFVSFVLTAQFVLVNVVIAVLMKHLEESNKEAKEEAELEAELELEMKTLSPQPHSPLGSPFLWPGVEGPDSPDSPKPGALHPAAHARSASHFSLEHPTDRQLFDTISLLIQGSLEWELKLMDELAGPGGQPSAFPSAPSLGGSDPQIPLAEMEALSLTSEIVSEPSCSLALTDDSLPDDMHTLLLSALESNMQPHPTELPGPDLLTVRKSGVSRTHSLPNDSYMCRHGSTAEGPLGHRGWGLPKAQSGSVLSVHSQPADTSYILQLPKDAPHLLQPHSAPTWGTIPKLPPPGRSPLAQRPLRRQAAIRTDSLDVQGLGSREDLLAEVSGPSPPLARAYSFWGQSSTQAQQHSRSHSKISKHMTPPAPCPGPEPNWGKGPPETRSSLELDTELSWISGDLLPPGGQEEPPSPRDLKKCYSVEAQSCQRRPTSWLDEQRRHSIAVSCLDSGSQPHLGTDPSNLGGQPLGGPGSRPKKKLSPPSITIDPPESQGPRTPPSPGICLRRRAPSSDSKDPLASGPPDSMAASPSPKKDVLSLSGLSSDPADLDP

| inhibition at 10 µM [%] | SMILES |
| --- | --- |
| 5.6 | CN1CCN(CCCNC(=O)c2ccc3c(c2)C(=O)N(Cc2ccc(F)cc2)C3=O)CC1 [Compound 74, 1-(3-{[2-(4-fluoro-benzyl)-1,3-dioxo-2,3-dihydro-1H-isoindol-5-carbonyl]-amino}-propyl)-4-methyl-1-piperazinium chloride] |
| 33.6 | O=C(NCCN1CCCCC1)c1ccc2c(c1)C(=O)N(Cc1ccccc1Cl)C2=O [Compound 75, 1-(2-{[2-(2-chloro-benzyl)-1,3-dioxo-2,3-dihydro-1H-isoindol-5-carbonyl]-amino}-ethyl)-piperidinium chloride] |
| 21.5 | O=C(NCCN1CCCC1)c1ccc2c(c1)C(=O)N(Cc1ccccc1Cl)C2=O [Compound 77, 1-(2-{[2-(2-chloro-benzyl)-1,3-dioxo-2,3-dihydro-1H-isoindol-5-carbonyl]-amino}-ethyl)-pyrrolidinium chloride] |
| 25.4 | O=C(NCCCN1CCCC1)c1ccc2c(c1)C(=O)N(Cc1ccccc1Cl)C2=O [Compound 78, 1-(3-{[2-(2-chloro-benzyl)-1,3-dioxo-2,3-dihydro-1H-isoindol-5-carbonyl]-amino}-propyl)-pyrrolidinium chloride] |
| 15.6 | O=C(NCCN1CCOCC1)c1ccc2c(c1)C(=O)N(Cc1ccccc1Cl)C2=O [Compound 79, 4-(2-{[2-(2-chloro-benzyl)-1,3-dioxo-2,3-dihydro-1H-isoindol-5-carbonyl]-amino}-ethyl)-4-morpholinium chloride] |
| 23.5 | O=C(NCCCN1CCOCC1)c1ccc2c(c1)C(=O)N(Cc1ccccc1Cl)C2=O [Compound 80, 4-(3-{[2-(2-chloro-benzyl)-1,3-dioxo-2,3-dihydro-1H-isoindol-5-carbonyl]-amino}-propyl)-4-morpholinium chloride] |
| 42.9 | O=C(NCCN1CCCCC1)c1ccc2c(c1)C(=O)N(Cc1cccc(Cl)c1)C2=O [Compound 81, 1-(2-{[2-(3-chloro-benzyl)-1,3-dioxo-2,3-dihydro-1H-isoindol-5-carbonyl]-amino}-ethyl)-piperidinium chloride] |
| 28.9 | O=C(NCCN1CCCC1)c1ccc2c(c1)C(=O)N(Cc1cccc(Cl)c1)C2=O [Compound 83, 1-(2-{[2-(3-chloro-benzyl)-1,3-dioxo-2,3-dihydro-1H-isoindol-5-carbonyl]-amino}-ethyl)-pyrrolidinium chloride] |
| 30.4 | O=C(NCCCN1CCCC1)c1ccc2c(c1)C(=O)N(Cc1cccc(Cl)c1)C2=O [Compound 84, 1-(3-{[2-(3-chloro-benzyl)-1,3-dioxo-2,3-dihydro-1H-isoindol-5-carbonyl]-amino}-propyl)-pyrrolidinium chloride] |
| 25.3 | O=C(NCCN1CCOCC1)c1ccc2c(c1)C(=O)N(Cc1cccc(Cl)c1)C2=O [Compound 85, 4-(2-{[2-(3-chloro-benzyl)-1,3-dioxo-2,3-dihydro-1H-isoindol-5-carbonyl]-amino}-ethyl)-4-morpholinium chloride] |
| 27.8 | O=C(NCCCN1CCOCC1)c1ccc2c(c1)C(=O)N(Cc1cccc(Cl)c1)C2=O [Compound 86, 4-(3-{[2-(3-chloro-benzyl)-1,3-dioxo-2,3-dihydro-1H-isoindol-5-carbonyl]-amino}-propyl)-4-morpholinium chloride] |
| 29.8 | O=C(NCCN1CCCC1)c1ccc2c(c1)C(=O)N(Cc1ccc(Cl)cc1)C2=O [Compound 89, 1-(2-{[2-(4-chloro-benzyl)-1,3-dioxo-2,3-dihydro-1H-isoindol-5-carbonyl]-amino}-ethyl)-pyrrolidinium chloride] |
| 35 | O=C(NCCCN1CCCC1)c1ccc2c(c1)C(=O)N(Cc1ccc(Cl)cc1)C2=O [Compound 90, 1-(3-{[2-(4-chloro-benzyl)-1,3-dioxo-2,3-dihydro-1H-isoindol-5-carbonyl]-amino}-propyl)-pyrrolidinium chloride] |
| 26.1 | O=C(NCCN1CCOCC1)c1ccc2c(c1)C(=O)N(Cc1ccc(Cl)cc1)C2=O [Compound 91, 4-(2-{[2-(4-chloro-benzyl)-1,3-dioxo-2,3-dihydro-1H-isoindol-5-carbonyl]-amino}-ethyl)-4-morpholinium chloride] |
| 29.9 | O=C(NCCCN1CCOCC1)c1ccc2c(c1)C(=O)N(Cc1ccc(Cl)cc1)C2=O [Compound 92, 4-(3-{[2-(4-chloro-benzyl)-1,3-dioxo-2,3-dihydro-1H-isoindol-5-carbonyl]-amino}-propyl)-4-morpholinium chloride] |
| 15.7 | Cc1ccccc1CN1C(=O)c2ccc(C(=O)NCCN3CCCC3)cc2C1=O [Compound 95, 1-(2-{[2-(2-methyl-benzyl)-1,3-dioxo-2,3-dihydro-1H-isoindol-5-carbonyl]-amino}-ethyl)-pyrrolidinium chloride] |
| 15.5 | Cc1ccccc1CN1C(=O)c2ccc(C(=O)NCCCN3CCCC3)cc2C1=O [Compound 96, 1-(3-{[2-(2-methyl-benzyl)-1,3-dioxo-2,3-dihydro-1H-isoindol-5-carbonyl]-amino}-propyl)-pyrrolidinium chloride] |
| 27.2 | Cc1cccc(CN2C(=O)c3ccc(C(=O)NCCN4CCCC4)cc3C2=O)c1 [Compound 101, 1-(2-{[2-(3-methyl-benzyl)-1,3-dioxo-2,3-dihydro-1H-isoindol-5-carbonyl]-amino}-ethyl)-pyrrolidinium chloride] |
| 24.8 | Cc1cccc(CN2C(=O)c3ccc(C(=O)NCCCN4CCCC4)cc3C2=O)c1 [Compound 102, 1-(3-{[2-(3-methyl-benzyl)-1,3-dioxo-2,3-dihydro-1H-isoindol-5-carbonyl]-amino}-propyl)-pyrrolidinium chloride] |
| 21.1 | Cc1cccc(CN2C(=O)c3ccc(C(=O)NCCN4CCOCC4)cc3C2=O)c1 [Compound 103, 4-(2-{[2-(3-methyl-benzyl)-1,3-dioxo-2,3-dihydro-1H-isoindol-5-carbonyl]-amino}-ethyl)-4-morpholinium chloride] |
| 15.5 | Cc1cccc(CN2C(=O)c3ccc(C(=O)NCCCN4CCOCC4)cc3C2=O)c1 [Compound 104, 4-(3-{[2-(3-methyl-benzyl)-1,3-dioxo-2,3-dihydro-1H-isoindol-5-carbonyl]-amino}-propyl)-4-morpholinium chloride] |
| 30.9 | Cc1ccc(CN2C(=O)c3ccc(C(=O)NCCN4CCCCC4)cc3C2=O)cc1 [Compound 105, 1-(2-{[2-(4-methyl-benzyl)-1,3-dioxo-2,3-dihydro-1H-isoindol-5-carbonyl]-amino}-ethyl)-piperidinium chloride] |
| 40.1 | Cc1ccc(CN2C(=O)c3ccc(C(=O)NCCCN4CCCCC4)cc3C2=O)cc1 [Compound 106, 1-(3-{[2-(4-methyl-benzyl)-1,3-dioxo-2,3-dihydro-1H-isoindol-5-carbonyl]-amino}-propyl)-piperidinium chloride] |

same assay, conditions: 100 μM; HEK293 cells expressing α1G and Kir2.1; read-out: Inhibitory effect (%) of T-type calcium channel, Inhibition (%)

| inhibition at 100 µM [%] | SMILES |
| --- | --- |
| 78.2 | O=C(NCCN1CCCCC1)c1ccc2c(c1)C(=O)N(Cc1ccc(F)cc1)C2=O [Compound 68, 1-(2-{[2-(4-fluoro-benzyl)-1,3-dioxo-2,3-dihydro-1H-isoindol-5-carbonyl]-amino}-ethyl)-piperidinium chloride] |
| 67.5 | O=C(NCCN1CCCC1)c1ccc2c(c1)C(=O)N(Cc1ccc(F)cc1)C2=O [Compound 70, 1-(2-{[2-(4-fluoro-benzyl)-1,3-dioxo-2,3-dihydro-1H-isoindol-5-carbonyl]-amino}-ethyl)-pyrrolidinium chloride] |
| 46.4 | O=C(NCCN1CCOCC1)c1ccc2c(c1)C(=O)N(Cc1ccc(F)cc1)C2=O [Compound 72, 4-(2-{[2-(4-fluoro-benzyl)-1,3-dioxo-2,3-dihydro-1H-isoindol-5-carbonyl]-amino}-ethyl)-4-morpholinium chloride] |
| 64.8 | O=C(NCCCN1CCOCC1)c1ccc2c(c1)C(=O)N(Cc1ccc(F)cc1)C2=O [Compound 73, 4-(3-{[2-(4-fluoro-benzyl)-1,3-dioxo-2,3-dihydro-1H-isoindol-5-carbonyl]-amino}-propyl)-4-morpholinium chloride] |
| 69.8 | Cc1ccccc1CN1C(=O)c2ccc(C(=O)NCCN3CCOCC3)cc2C1=O [Compound 97, 4-(2-{[2-(2-methyl-benzyl)-1,3-dioxo-2,3-dihydro-1H-isoindol-5-carbonyl]-amino}-ethyl)-4-morpholinium chloride] |
| 55.2 | Cc1ccccc1CN1C(=O)c2ccc(C(=O)NCCCN3CCOCC3)cc2C1=O [Compound 98, 4-(3-{[2-(2-methyl-benzyl)-1,3-dioxo-2,3-dihydro-1H-isoindol-5-carbonyl]-amino}-propyl)-4-morpholinium chloride] |
